Assay results as given in patent publication US12293809B2, “Workflow for generating compounds with biological activity against a specific biological target” (INSILICO MEDICINE IP LIMITED, priority 2019, dated 2025).
≈ marks a conversion by molar mass, not a printed value. Read-outs that look alike come from different tables or passages of the source. Blank lines part the entries; values can stand above or below the compound they belong to.

Columns and labels:
[1] = system: CTGF production in LX-2 cells; test: LX-2 fibrosis assay, TGF-β stimulated (Western blot); type: cell-based, human
Procedure: (§1) Collagen α1, α-SMA, CTGF and GAPDH were traced using Western blot analysis. DMSO and SB-525334 were used as negative and positive controls, respectively.
(§2) Human hepatic stellate cells LX-2 were grown in DMEM (Invitrogen, 11960) supplied with 1% MEM Non-Essential Amino Acids (Invitrogen, 11140-050), 2% fetal bovine serum (Hyclone, SV30087.03), Penicillin (100 U/mL)-streptomycin (100 μg/mL) (Millipore, TMS-AB2-C) and 2 mM L-Glutamine (Invitrogen, 25030-001). After the cells grew in 12-well plates for 24 h, the cell culture medium was changed to the same as above except using 0.4% fetal bovine serum. After 20 h growth in the reduced serum medium, the cells were treated with indicated doses of compounds for 30 minutes. Subsequently, the cells were stimulated with 4 ng/mL TGF-β (R&D Systems, 240-B-002) for 48 h. The cells were rinsed twice with DPBS before being harvested with 100 μL RIPA buffer (Sigma, R0278) supplemented with protease inhibitor cocktail (Roche, 04693132001) at 4° C. The total protein in each sample was quantified using BCA Protein Assay Kit (Pierce™, 23227) and equal amount of total protein of each sample was subject to Western blot analysis. Antibodies used were mouse anti-α-Actin (SPM332) (sc-365970), mouse anti-CTGF (E5) (sc-365970), and mouse anti-collagen al (3G3) (sc-293182), from Santa Cruz Biotechnologies; and mouse anti-GAPDH (6C5) (EMD Millipore, MAB374).

[2] = system: collagen α1 production in LX-2 cells; test: as above; type: cell-based, human
Procedure: as §1, §2

[3] = Mouse PK study, PO administration; type: in vivo
[4] = target: T1, CYP2D6 (Homo sapiens, UniProt P10635); test: Cytochrome inhibition in HLM; type: in vitro ADME
T1 construct: from tissue; host or cells: human liver microsomes (HLM)
Procedure: (§3) Water used in the assay and analysis was purified by ELGA Lab purification systems. Potassium phosphate buffer (PB) in concentration of 100 mM and MgCl2 in concentration of 33 mM were used. […] Microsomes were pulled out of the −80° C. freezer to thaw on ice, labeled the date and put back to freezer immediately after using. 20 μL of the substrates solutions were added to corresponding wells. 20 μL PB were added to Blank wells. 2 μL of the test compounds and positive control working solution were added to corresponding wells. Then, HLM working solution was prepared. 158 μL of the HLM working solution was added to all wells of incubation plate. The plate was pre-warmed for about 10 min at 37° C. water bath. Then, NADPH cofactor solution was prepared. 20 μL NADPH cofactor was added to all incubation wells. The solution was mixed and incubated for 10 minutes at 37° C. water bath. At the time point, the reaction was terminated by adding 400 μL cold stop solution (200 ng/mL Tolbutamide and 200 ng/mL Labetalol in ACN). The samples were centrifuged at 4000 rpm for 20 minutes to precipitate protein. 200 μL supernatant was transferred to 100 μL HPLC water and shaken for 10 min. XL fit was used to plot the percent of vehicle control versus the test compound concentrations, and for non-linear regression analysis of the data. IC50 values were determined using 3- or 4-parameter logistic equation.

[5] = target: T2, CYP3A4-M (Homo sapiens, UniProt P08684); test: Cytochrome inhibition in HLM; type: in vitro ADME
T2 construct: from tissue; host or cells: human liver microsomes (HLM)
Procedure: as §3

[6] = target: T3, CYP2C19 (Homo sapiens, UniProt P33261); test: Cytochrome inhibition in HLM; type: in vitro ADME
T3 construct: from tissue; host or cells: human liver microsomes (HLM)
Procedure: as §3

[7] = target: T4, CYP2C9 (Homo sapiens, UniProt P11712); test: Cytochrome inhibition in HLM; type: in vitro ADME
T4 construct: from tissue; host or cells: human liver microsomes (HLM)
Procedure: as §3

[8] = Microsomal stability (DLM); conditions: for Remaining (*NCF = 60 min) / Remaining (T = 60 min): 1 h
Procedure: Cold acetonitrile (ACN) including 100 ng/mL Tolbutamide and 100 ng/mL Labetalol as internal standard (IS) were used for stop solution. 10 μL compound or control working solution/well was added to all plates (T0, T5, T10, T20, T30, T60, NCF60) except matrix blank. Dispense 80 μL/well microsome solution was added to every plate by Apricot, the mixture of microsome solution and compound were incubated at 37° C. for about 10 min. After pre-warming, dispense 10 μL/well NADPH regenerating system was added to every plate by Apricot to start reaction. The solution was then incubated at 37° C. 300 (μL/well) stop solution (cold in 4° C.) was added to terminate the reaction. The sampling plates were shaken for approximately 10 min. Samples were centrifuged at 4000 rpm for 20 min under 4° C. While centrifuging, 8×new 96-well plate were loaded with 300 μL HPLC water, then 100 μL supernatant was transferred and mixed for LC/MS/MS.

[9] = pKa; type: physicochemical
Procedure: (§4) Since Compound 2 contains an imidazolidine fragment typically unusual in drug discovery we experimentally assessed key properties for this molecule. […] The inhibition activity of Compounds 1 and 2 towards a small panel of key cytochrome P450 (CYP450) isoforms was also assessed in vitro (Table 2).

[10] = Kinetic solubility; type: physicochemical; conditions: pH=7.4
Procedure: as §4

[11] = target: T5, Human DDR1b (Homo sapiens, UniProt Q08345); test: DDR1 autophosphorylation in collagen-stimulated U2OS cells (Western blot); type: cell-based; conditions: normalized to HA and GAPDH
T5 construct: expressed in transfected cells
Procedure: The amount of activated DRR1 (Y543) was measured using Western blot analysis, the obtained data were normalized to HA and GAPDH protein levels.
Human DDR1b gene with HA-tag was cloned into pCMV Tet-On vector (Clontech) and stable inducible cell lines established in U2OS were used for the IC50 test. […] The cells were detached with trypsinization and transferred to a 15-ml tube.

[12] = Thermodynamic solubility; type: physicochemical
Procedure: as §4

[13] = PO 15 mg/kg, M04-M06 individual, c4 Mean ± SD, 15 mg/kg, mean

T2 sequence (P08684 whole entry): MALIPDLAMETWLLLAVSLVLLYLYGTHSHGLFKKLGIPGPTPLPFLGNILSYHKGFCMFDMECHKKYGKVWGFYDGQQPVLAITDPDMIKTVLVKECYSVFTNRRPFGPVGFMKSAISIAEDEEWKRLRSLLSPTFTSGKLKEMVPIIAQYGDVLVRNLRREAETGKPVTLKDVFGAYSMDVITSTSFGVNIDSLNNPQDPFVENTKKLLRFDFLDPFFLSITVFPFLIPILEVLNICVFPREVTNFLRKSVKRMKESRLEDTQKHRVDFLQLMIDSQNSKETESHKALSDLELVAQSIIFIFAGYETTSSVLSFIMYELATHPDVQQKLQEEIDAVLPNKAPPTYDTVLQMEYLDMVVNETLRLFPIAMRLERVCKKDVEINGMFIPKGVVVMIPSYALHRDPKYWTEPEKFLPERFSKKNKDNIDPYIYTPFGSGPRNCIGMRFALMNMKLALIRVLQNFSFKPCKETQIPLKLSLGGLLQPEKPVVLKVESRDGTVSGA
T4 sequence (P11712 whole entry): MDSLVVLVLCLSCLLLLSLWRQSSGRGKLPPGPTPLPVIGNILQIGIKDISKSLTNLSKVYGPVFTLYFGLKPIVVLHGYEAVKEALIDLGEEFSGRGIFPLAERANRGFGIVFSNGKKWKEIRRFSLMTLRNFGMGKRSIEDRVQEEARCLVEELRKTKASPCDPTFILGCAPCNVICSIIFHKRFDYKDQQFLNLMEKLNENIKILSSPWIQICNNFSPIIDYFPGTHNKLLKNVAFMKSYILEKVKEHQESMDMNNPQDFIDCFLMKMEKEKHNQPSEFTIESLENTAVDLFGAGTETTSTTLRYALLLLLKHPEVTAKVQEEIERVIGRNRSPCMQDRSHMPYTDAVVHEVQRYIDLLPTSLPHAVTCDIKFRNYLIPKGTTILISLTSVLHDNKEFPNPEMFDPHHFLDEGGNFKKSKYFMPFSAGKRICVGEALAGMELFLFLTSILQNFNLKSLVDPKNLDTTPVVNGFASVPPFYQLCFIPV
T3 sequence (P33261 whole entry): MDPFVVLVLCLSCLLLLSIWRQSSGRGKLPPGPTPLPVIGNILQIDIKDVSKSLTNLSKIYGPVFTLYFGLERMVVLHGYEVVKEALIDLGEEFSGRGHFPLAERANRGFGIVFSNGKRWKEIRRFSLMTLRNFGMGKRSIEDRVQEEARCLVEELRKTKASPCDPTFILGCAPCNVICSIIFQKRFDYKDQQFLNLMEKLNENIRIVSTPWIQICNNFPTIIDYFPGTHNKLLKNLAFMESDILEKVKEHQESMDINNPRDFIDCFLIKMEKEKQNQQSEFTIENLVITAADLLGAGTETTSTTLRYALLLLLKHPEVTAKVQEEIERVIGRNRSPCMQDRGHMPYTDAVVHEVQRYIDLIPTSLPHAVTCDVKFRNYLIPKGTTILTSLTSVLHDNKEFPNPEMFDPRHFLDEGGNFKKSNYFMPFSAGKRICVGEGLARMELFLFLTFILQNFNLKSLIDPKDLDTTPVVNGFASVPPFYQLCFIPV
T1 sequence (P10635 whole entry): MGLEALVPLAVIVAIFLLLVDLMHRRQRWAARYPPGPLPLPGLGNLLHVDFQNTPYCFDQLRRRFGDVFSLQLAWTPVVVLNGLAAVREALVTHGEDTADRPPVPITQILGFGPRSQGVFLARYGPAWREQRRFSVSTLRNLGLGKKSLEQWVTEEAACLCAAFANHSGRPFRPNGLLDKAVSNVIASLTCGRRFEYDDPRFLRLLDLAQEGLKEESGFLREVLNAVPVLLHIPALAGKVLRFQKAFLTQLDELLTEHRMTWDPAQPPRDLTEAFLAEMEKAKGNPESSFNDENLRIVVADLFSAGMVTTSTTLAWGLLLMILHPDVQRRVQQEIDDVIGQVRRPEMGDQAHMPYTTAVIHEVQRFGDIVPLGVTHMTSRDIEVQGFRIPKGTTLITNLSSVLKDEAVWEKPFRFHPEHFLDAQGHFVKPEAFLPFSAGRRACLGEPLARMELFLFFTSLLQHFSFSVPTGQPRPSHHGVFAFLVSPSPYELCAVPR
T5 sequence (Q08345 19-913): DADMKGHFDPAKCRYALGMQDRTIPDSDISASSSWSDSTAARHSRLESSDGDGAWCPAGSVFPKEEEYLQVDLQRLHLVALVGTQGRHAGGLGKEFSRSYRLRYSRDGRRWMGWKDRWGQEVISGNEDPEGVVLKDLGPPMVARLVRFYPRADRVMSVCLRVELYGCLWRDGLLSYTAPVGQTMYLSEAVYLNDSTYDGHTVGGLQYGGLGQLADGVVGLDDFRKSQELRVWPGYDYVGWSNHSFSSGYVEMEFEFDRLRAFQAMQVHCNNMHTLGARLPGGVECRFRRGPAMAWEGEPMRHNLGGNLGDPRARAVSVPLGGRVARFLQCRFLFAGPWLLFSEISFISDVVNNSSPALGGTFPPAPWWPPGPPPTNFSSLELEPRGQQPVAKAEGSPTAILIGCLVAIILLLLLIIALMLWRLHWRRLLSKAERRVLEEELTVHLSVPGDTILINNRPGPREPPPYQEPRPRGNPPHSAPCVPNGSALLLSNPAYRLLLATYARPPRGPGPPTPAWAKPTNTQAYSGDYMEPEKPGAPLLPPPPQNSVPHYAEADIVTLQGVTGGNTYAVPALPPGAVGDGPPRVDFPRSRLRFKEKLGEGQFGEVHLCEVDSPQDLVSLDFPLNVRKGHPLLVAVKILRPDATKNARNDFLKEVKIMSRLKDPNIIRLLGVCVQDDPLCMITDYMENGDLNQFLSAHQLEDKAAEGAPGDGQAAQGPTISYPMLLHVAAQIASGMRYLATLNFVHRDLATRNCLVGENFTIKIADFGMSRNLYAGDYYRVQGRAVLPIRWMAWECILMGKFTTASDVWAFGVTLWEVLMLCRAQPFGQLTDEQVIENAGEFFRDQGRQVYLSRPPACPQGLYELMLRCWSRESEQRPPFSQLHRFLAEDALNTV

Bioavailability ([3]; PO 15 mg/kg vs IV 10 mg/kg, calculated using AUC0-inf): 17.8 ± — %
AUC0-inf [3, 13]: 1911 ± 94.3 ng·h/mL
AUC0-last [3, 13]: 1896 ± 93.7 ng·h/mL
AUCExtra [3, 13]: 0.787 ± 0.278%
AUMCExtra [3, 13]: 4.01 ± 1.60%
Cmax [3, 13]: 276 ± 75.4 ng/mL
MRT0-inf [3, 13]: 5.73 ± 0.999 h
MRT0-last [3, 13]: 5.54 ± 1.000 h
T1/2 [3, 13]: 3.29 ± 0.278 h
Tmax [3, 13]: 2.33 ± 1.53 h
Tlast ([3]; PO 15 mg/kg, M04-M06 individual, c4 Mean, 15 mg/kg, mean): 24.0 ± — h
IC50 [4]: > 50 µM
IC50 [5]: > 50 µM
IC50 [6]: > 50 µM
IC50 [7]: > 50 µM
Structure (SMILES): Cc1ccc2c(Nc3cccc(C(F)(F)F)c3)noc2c1C#Cc1cnc2cccnn12 [Compound 1]
effect in CTGF assay ([1]; LX-2 cells): did not show the inhibition effect
IC50 ([2]; TGF-β stimulated LX-2 cells, normalized to GAPDH, read-out: IC50, collagen production): 0.013 µM

Structure (SMILES): O=C(Nc1cccc(C(=O)N2CCN(c3ccnc4[nH]ccc34)C2)c1)c1cccc(C(F)(F)F)c1 [Compound 2]
CTGF production prevented ([1]; 14 nM): 43%
IC50 ([2]; LX-2 cells, read-out: IC50, collagen assay): > 10 µM
CLint(mic) ([8]; DLM 0.5): 162.6
CLint(mic) ([8]; HLM 0.5): 108.2
T1/2 ([8]; dog, microsomes): 0.142 h
Remaining (*NCF = 60 min) ([8]; dog, microsomes): 99.9%
Remaining (T = 60 min) ([8]; dog, microsomes): 0.6%
T1/2 ([8]; human, microsomes): 0.213 h
Remaining (*NCF = 60 min) ([8]; human, microsomes): 88.7%
Remaining (T = 60 min) ([8]; human, microsomes): 2.8%
CLint(mic) ([8]; rat, microsomes): 80.6
T1/2 ([8]; rat, microsomes): 0.287 h
Remaining (*NCF = 60 min) ([8]; rat, microsomes): 88.3%
Remaining (T = 60 min) ([8]; rat, microsomes): 7.1%
pKa [9]: 6.99
kinetic solubility [10]: 1.09 µg/mL (≈ 2.27 µM)
IC50 [11]: 0.0058 µM
IC50 [4]: 6.97 µM
IC50 [5]: 7.36 µM
IC50 [6]: 6.56 µM
IC50 [7]: 2.7 µM
thermodynamic solubility [12]: < 0.59 µg/mL
